# Results published in PMC12024912, “Druggability Studies of Benzene Sulfonamide Substituted Diarylamide (E3) as a Novel Diuretic” (Biomedicines, 2025).
# Read-outs that look alike come from different tables or passages of the source.
# Target: T1, UT-B (Rattus norvegicus, UniProt P97689)
# T1 construct: endogenous in cells; host or cells: erythrocytes from male SD rats
# T1 sequence (P97689 1-384): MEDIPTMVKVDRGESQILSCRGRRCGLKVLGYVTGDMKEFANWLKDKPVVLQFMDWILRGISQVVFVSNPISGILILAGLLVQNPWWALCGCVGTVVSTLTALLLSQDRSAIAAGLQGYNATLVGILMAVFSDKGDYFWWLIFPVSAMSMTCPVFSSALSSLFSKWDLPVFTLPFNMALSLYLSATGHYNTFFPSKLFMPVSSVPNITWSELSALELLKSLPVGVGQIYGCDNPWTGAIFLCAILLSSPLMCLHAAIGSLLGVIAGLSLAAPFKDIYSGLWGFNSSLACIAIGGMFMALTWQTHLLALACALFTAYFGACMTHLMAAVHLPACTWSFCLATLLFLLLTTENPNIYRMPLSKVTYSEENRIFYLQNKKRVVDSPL
# Assay: Erythrocyte lysis assay for UT-B inhibition, rat erythrocytes
# Assay type: cell-based
# Description: The erythrocyte lysis assay was modified from a method described previously. Erythrocytes obtained from veins were diluted to a hematocrit value of 2% in hyperosmolar PBS containing 1.25 mol/L urea and 5 mmol/L glucose and incubated at r.t. for 2 h. Then, 99 μL erythrocyte suspension from a reservoir was added to each well of a 96-well round-bottom microplate, then 1 μL of the testing compound (500, 125, 31.25, 7.81, 1.95, 0.488, 0.122, 0.031, 0.0076 μmol/L dissolved in DMSO) was added to erythrocyte suspension and shook it up with microoscillator for 1 min. Following 5 min incubation, 20 μL erythrocyte suspension was transferred into 96-well black microplates preloaded with 180 μL isotonic PBS (10 mM, urea-free). Erythrocyte lysis was monitored at 710 nm optical density (OD710) for 6 min, with lysis rates calculated using control values from the same plate as Equation (1):Lysis (%) = 100 × (Aneg − Atest)/(Aneg − Apos)(1) where Atest is the absorbance value from the test well, Aneg is from a negative no-lysis control well, and Apos is from a positive full-lysis control.
compound,measurement,setting,value
"CC(=O)c1ccc(C(=O)Nc2cccc(NS(=O)(=O)c3ccccc3)c2)o1 [Compound E3, 5-acetyl-N-(3-(phenylsulfonamido)phenyl)furan-2-carboxamide]","maximum inhibition rate, rat cells",erythrocyte lysis assay,approximately 100%
same,IC50,"erythrocyte lysis model, rat, n = 3, means, read-out: IC50 (μM) Rat",0.01 µM
same,IC50,"red blood cell lysis assay, read-out: IC50 for UT-B-promoted urea transport, rats",0.0076 µM
